From ChEMBL document CHEMBL3997794, “Design and synthesis of benzodiazepine analogs as isoform-selective human lysine deacetylase inhibitors” (Eur J Med Chem, 2017) come the findings set out here.

The structures appear in SMILES notation. Some results are limits rather than exact numbers.

For assay [1], the target named is T1, Protein deacetylase HDAC6 (Homo sapiens) (UniProt Q9UBN7).
T1 sequence (whole entry): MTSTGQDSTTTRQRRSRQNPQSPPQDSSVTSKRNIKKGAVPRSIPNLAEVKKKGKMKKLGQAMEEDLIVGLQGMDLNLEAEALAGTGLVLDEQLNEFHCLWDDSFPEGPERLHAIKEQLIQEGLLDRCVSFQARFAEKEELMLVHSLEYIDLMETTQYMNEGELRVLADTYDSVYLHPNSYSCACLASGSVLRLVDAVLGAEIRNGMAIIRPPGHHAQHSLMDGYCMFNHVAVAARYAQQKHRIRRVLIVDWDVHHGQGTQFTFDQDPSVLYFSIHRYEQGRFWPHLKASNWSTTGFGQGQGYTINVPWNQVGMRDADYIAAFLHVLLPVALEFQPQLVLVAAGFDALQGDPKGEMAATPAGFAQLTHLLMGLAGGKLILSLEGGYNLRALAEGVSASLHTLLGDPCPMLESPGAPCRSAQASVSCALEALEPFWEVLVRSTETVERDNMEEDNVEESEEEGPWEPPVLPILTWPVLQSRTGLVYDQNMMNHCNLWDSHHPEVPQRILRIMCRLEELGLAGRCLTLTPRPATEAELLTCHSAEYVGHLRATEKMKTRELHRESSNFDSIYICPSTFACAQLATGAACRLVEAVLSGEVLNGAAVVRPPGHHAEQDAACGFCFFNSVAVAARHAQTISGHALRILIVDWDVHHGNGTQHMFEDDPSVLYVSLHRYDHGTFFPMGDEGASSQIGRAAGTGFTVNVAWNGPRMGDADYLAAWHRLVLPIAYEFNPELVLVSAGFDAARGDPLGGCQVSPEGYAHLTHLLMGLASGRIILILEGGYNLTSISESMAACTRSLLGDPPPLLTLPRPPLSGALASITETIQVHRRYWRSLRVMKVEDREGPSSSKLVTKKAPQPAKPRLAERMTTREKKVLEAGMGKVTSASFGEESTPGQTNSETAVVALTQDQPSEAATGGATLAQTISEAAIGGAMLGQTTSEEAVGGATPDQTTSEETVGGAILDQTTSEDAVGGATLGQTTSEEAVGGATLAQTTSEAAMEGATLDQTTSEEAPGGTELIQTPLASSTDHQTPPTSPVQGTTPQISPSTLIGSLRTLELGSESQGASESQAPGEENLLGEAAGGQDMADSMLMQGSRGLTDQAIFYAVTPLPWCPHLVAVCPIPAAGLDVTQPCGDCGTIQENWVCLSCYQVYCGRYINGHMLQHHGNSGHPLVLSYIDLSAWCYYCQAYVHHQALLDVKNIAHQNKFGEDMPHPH
To be noted: at 30 µM.
Description: Inhibition of human KDAC6 at 30 uM using FITC-labeled histone H4 acetylated peptide as substrate after 60 mins by fluorescence assay relative to control

Assay [2] addresses T2, Histone deacetylase 1 (Homo sapiens, UniProt Q13547). In words: Inhibition of human KDAC1 using substrate A after 60 mins by fluorescence assay.
Assay [3] deals with T2, Histone deacetylase 1. In words: Inhibition of human KDAC1 at 30 uM using substrate A after 60 mins by fluorescence assay relative to control.
Assay [4] deals with T3, Protein deacetylase HDAC6 (Homo sapiens, UniProt Q9UBN7).
T3 sequence (Q9UBN7 whole entry): T1 sequence (whole entry)
In words: Inhibition of human KDAC6 using FITC-labeled histone H4 acetylated peptide as substrate after 60 mins by fluorescence assay.

Assay [5] deals with T4, Histone deacetylase 8 (Homo sapiens) (UniProt Q9BY41).
T4 sequence (whole entry): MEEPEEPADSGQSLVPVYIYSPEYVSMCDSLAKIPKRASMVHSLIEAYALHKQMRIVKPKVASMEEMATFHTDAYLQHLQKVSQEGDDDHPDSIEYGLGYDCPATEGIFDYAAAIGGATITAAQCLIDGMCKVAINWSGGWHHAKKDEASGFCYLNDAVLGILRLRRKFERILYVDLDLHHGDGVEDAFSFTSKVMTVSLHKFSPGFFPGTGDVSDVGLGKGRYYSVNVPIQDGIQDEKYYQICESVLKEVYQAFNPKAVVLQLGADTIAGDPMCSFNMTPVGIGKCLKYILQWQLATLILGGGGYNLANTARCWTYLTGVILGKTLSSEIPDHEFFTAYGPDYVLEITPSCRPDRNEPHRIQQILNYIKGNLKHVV
The experiment in a line: Inhibition of human KDAC8 at 30 uM after 60 mins by fluorescence assay relative to control.

Assay [6] deals with T5, Histone deacetylase 3 (Homo sapiens, UniProt O15379). The experiment in a line: Inhibition of human KDAC3 using FITC-labeled p53 acetylated peptide as substrate after 60 mins by fluorescence assay.
In assay [7] the target is T5, Histone deacetylase 3. The experiment in a line: Inhibition of human KDAC3 at 30 uM using FITC-labeled p53 acetylated peptide as substrate after 60 mins by fluorescence assay relative to control.
A further assay deals with T6, Histone deacetylase 8 (Homo sapiens, UniProt Q9BY41).
T6 sequence (Q9BY41 whole entry): T4 sequence (whole entry)
The experiment in a line: Inhibition of human KDAC8 after 60 mins by fluorescence assay.

T5 sequence (O15379 whole entry): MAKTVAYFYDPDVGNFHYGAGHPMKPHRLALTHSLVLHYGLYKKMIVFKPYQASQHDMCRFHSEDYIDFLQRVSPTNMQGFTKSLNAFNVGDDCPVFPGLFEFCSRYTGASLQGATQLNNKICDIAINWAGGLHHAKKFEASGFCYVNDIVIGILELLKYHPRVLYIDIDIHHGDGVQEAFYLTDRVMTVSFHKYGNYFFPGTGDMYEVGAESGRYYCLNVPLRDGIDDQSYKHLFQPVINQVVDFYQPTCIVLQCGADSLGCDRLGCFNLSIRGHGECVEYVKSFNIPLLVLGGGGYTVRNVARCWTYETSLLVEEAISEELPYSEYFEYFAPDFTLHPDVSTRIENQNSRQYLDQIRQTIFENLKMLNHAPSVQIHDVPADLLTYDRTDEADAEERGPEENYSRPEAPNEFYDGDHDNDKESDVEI
T2 sequence (Q13547 whole entry): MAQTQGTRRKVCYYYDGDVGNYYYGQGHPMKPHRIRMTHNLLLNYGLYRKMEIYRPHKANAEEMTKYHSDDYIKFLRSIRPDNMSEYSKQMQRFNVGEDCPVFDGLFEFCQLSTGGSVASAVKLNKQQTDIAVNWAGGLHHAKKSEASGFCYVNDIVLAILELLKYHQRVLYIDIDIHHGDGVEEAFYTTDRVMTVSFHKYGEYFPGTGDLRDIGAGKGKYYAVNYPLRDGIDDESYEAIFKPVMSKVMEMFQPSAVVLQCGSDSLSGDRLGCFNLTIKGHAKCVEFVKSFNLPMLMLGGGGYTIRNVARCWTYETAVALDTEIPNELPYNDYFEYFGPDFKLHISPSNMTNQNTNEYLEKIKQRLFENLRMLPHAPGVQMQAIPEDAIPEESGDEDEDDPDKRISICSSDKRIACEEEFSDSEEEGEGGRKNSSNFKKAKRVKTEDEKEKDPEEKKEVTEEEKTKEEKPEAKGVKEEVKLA

Turning to `CC(C)(C)OC(=O)n1c(C[C@@H]2N=C(c3ccccc3)c3ccccc3N(CCCCC(=O)O)C2=O)cc2ccccc21`, the inhibition in assay [1] came out at 7.4%; at Histone deacetylase 1 [3], 11.3%; in assay [5] it was 23.2%; at Histone deacetylase 3 [7], 0.79%. Also, the IC50 (on Histone deacetylase 1 [2]; in assay [4]; against Histone deacetylase 3 [6]; at Histone deacetylase 8) was more than 30 µM each time.
Consider `NC(=O)C[C@@H]1N=C(c2ccccc2)c2ccccc2N(CCCCC(=O)NO)C1=O`, for which the inhibition in assay [1] amounted to 82.2%; against Histone deacetylase 1 [3] it was 57.6%; in assay [5] it was 26.2%; against Histone deacetylase 3 [7], 90.9%. The IC50 was 22.5 µM at Histone deacetylase 1 [2], 5.38 µM in assay [4], 3.1 µM against Histone deacetylase 3 [6] and more than 30 µM on Histone deacetylase 8.
For `CC(C)(C)SC[C@H]1N=C(c2ccccc2)c2ccccc2NC1=O`, the inhibition came to 2.05% in assay [1], 4.1% on Histone deacetylase 1 [3], 16.1% in assay [5] and 2.88% against Histone deacetylase 3 [7]. The IC50 (on Histone deacetylase 1 [2]; in assay [4]; against Histone deacetylase 3 [6]; at Histone deacetylase 8) was more than 30 µM throughout.
Take `CC[C@H](C)[C@@H]1N=C(c2ccccc2)c2ccccc2N(CCCCC(=O)O)C1=O`: the inhibition in assay [1] came to 0%; against Histone deacetylase 1 [3] it was 0%; in assay [5], 3.99%; on Histone deacetylase 3 [7], 0%. The IC50 (against Histone deacetylase 1 [2]; in assay [4]; at Histone deacetylase 3 [6]; against Histone deacetylase 8) was more than 30 µM each time.
Turning to `COC(=O)CCCCN1C(=O)[C@H](CCC(=O)OC(C)(C)C)N=C(c2ccccc2)c2ccccc21`, the inhibition is 0% in assay [1], 2.72% against Histone deacetylase 1 [3], 2.88% in assay [5] and 0% against Histone deacetylase 3 [7]. The IC50 (on Histone deacetylase 1 [2]; in assay [4]; at Histone deacetylase 3 [6]; against Histone deacetylase 8) was more than 30 µM throughout.
`CC(C)(C)OC(=O)C[C@@H]1N=C(c2ccccc2)c2ccccc2N(CCCCC(=O)O)C1=O`: the inhibition in assay [1] turned out to be 0%; on Histone deacetylase 1 [3] it was 0%; in assay [5], 0%; against Histone deacetylase 3 [7], 2.62%. The IC50 (against Histone deacetylase 1 [2]; in assay [4]; on Histone deacetylase 3 [6]; against Histone deacetylase 8) was more than 30 µM in each case.
With `COC(=O)CCCCN1C(=O)[C@H](Cc2ccccc2)N=C(c2ccccc2)c2ccccc21`, the inhibition in assay [1] is 6.49%; against Histone deacetylase 1 [3], 1.72%; in assay [5], 0%; on Histone deacetylase 3 [7], 1.85%. The IC50 (on Histone deacetylase 1 [2]; in assay [4]; against Histone deacetylase 3 [6]; at Histone deacetylase 8) was more than 30 µM in each case.
With `COC(=O)CCCCN1C(=O)[C@H](C)N=C(c2ccccc2)c2ccccc21`, the inhibition was found to be 8.84% in assay [1], 9.4% against Histone deacetylase 1 [3], 12.7% in assay [5] and 4.62% at Histone deacetylase 3 [7]. Besides, the IC50 (against Histone deacetylase 1 [2]; in assay [4]; at Histone deacetylase 3 [6]; on Histone deacetylase 8) was more than 30 µM throughout.
On to `C[C@@H]1N=C(c2ccccc2)c2ccccc2N(CCCCC(=O)NO)C1=O`, for which the inhibition in assay [1] came out at 92.7%; on Histone deacetylase 1 [3] it was 68.4%; in assay [5], 53.8%; at Histone deacetylase 3 [7] it was 93.8%. Further, the IC50 was found to be 12.7 µM at Histone deacetylase 1 [2], 2.95 µM in assay [4], 1.8 µM against Histone deacetylase 3 [6] and 24.7 µM against Histone deacetylase 8.
As for `Cc1c(C)c(S(=O)(=O)NC(=N)NCCC[C@@H]2N=C(c3ccccc3)c3ccccc3NC2=O)c(C)c2c1OC(C)(C)C2`, the inhibition in assay [1] stood at 0%; at Histone deacetylase 1 [3], 8%; in assay [5] it was 7.99%; on Histone deacetylase 3 [7], 0.47%. The IC50 (at Histone deacetylase 1 [2]; in assay [4]; against Histone deacetylase 3 [6]; on Histone deacetylase 8) was more than 30 µM each time.
For the compound `COC(=O)CCCCN1C(=O)[C@H]([C@@H](C)OCc2ccccc2)N=C(c2ccccc2)c2ccccc21`, the inhibition in assay [1] came to 0%; on Histone deacetylase 1 [3] it was 0.64%; in assay [5] it was 6.88%; against Histone deacetylase 3 [7], 7.91%. Further, the IC50 (against Histone deacetylase 1 [2]; in assay [4]; on Histone deacetylase 3 [6]; against Histone deacetylase 8) was more than 30 µM in each case.
For `CC(C)(C)OC(=O)NCCCC[C@@H]1N=C(c2ccccc2)c2ccccc2NC1=O`, the inhibition in assay [1] turned out to be 0%; on Histone deacetylase 1 [3] it was 2.97%; in assay [5] it was 0%; at Histone deacetylase 3 [7], 0%. Moreover, the IC50 (against Histone deacetylase 1 [2]; in assay [4]; against Histone deacetylase 3 [6]; at Histone deacetylase 8) was more than 30 µM each time.
`O=C1CN=C(c2ccccc2)c2ccccc2N1` [RO-052921]: the inhibition in assay [1] stood at 0%; on Histone deacetylase 1 [3], 7.95%; in assay [5] it was 2.82%; against Histone deacetylase 3 [7], 3.45%. For the same compound, the IC50 (on Histone deacetylase 1 [2]; in assay [4]; on Histone deacetylase 3 [6]; on Histone deacetylase 8) was more than 30 µM each time.
Regarding `COC(=O)CCCCN1C(=O)[C@H](C(C)C)N=C(c2ccccc2)c2ccccc21`, the inhibition in assay [1] is 0%; at Histone deacetylase 1 [3], 12.5%; in assay [5], 9.56%; against Histone deacetylase 3 [7], 0%. Moreover, the IC50 (against Histone deacetylase 1 [2]; in assay [4]; against Histone deacetylase 3 [6]; at Histone deacetylase 8) was more than 30 µM in each case.
`O=C(CCCCN1C(=O)[C@H](Cc2ccc(O)cc2)N=C(c2ccccc2)c2ccccc21)NO`: the inhibition stood at 78.5% in assay [1], 42.9% on Histone deacetylase 1 [3], 14.9% in assay [5] and 86.4% at Histone deacetylase 3 [7]. In addition, the IC50 against Histone deacetylase 1 [2] is more than 30 µM; in assay [4], 8.46 µM; at Histone deacetylase 3 [6] it was 5.29 µM; at Histone deacetylase 8, more than 30 µM.
Consider `O=C(O)C[C@@H]1N=C(c2ccccc2)c2ccccc2NC1=O`, for which the inhibition in assay [1] came out at 0%; against Histone deacetylase 1 [3], 3.13%; in assay [5] it was 0%; against Histone deacetylase 3 [7], 0%. Also, the IC50 (against Histone deacetylase 1 [2]; in assay [4]; at Histone deacetylase 3 [6]; against Histone deacetylase 8) was more than 30 µM each time.
As for `CC(C)(C)OC(=O)n1cc(C[C@@H]2N=C(c3ccccc3)c3ccccc3NC2=O)c2ccccc21`, the inhibition in assay [1] came out at 0%; against Histone deacetylase 1 [3], 6.47%; in assay [5] it was 0%; at Histone deacetylase 3 [7], 1.32%. For the same compound, the IC50 (against Histone deacetylase 1 [2]; in assay [4]; against Histone deacetylase 3 [6]; against Histone deacetylase 8) was more than 30 µM throughout.
Take `CC(C)(C)Oc1ccc(C[C@@H]2N=C(c3ccccc3)c3ccccc3NC2=O)cc1`: the inhibition came to 0% in assay [1], 4.79% against Histone deacetylase 1 [3], 0% in assay [5] and 0% against Histone deacetylase 3 [7]. Moreover, the IC50 (on Histone deacetylase 1 [2]; in assay [4]; at Histone deacetylase 3 [6]; against Histone deacetylase 8) was more than 30 µM in each case.
